Source: patent US8541588B2, “Sulfonamide derivatives” (Pfizer Limited, priority 2009, dated 2013)
Values joined by “and” are separate entries in the source; they are usually repeats but may differ in a detail not shown here. Equal values may be shown once.

These compounds were tested against T1, Nav1.7 (or SCN9A) channel; HEK cells stably transfected with hSCN9A (Homo sapiens, UniProt Q15858) (assay: Nav1.7 block, PatchXpress 7000 automated whole-cell voltage clamp, estimated IC50 (EIC50)). Details: PatchXpress platform; hSCN9A HEK cells held at V1/2 of inactivation; estimated IC50.
T1 construct: expressed in transfected cells
T1 sequence (Q15858 whole entry): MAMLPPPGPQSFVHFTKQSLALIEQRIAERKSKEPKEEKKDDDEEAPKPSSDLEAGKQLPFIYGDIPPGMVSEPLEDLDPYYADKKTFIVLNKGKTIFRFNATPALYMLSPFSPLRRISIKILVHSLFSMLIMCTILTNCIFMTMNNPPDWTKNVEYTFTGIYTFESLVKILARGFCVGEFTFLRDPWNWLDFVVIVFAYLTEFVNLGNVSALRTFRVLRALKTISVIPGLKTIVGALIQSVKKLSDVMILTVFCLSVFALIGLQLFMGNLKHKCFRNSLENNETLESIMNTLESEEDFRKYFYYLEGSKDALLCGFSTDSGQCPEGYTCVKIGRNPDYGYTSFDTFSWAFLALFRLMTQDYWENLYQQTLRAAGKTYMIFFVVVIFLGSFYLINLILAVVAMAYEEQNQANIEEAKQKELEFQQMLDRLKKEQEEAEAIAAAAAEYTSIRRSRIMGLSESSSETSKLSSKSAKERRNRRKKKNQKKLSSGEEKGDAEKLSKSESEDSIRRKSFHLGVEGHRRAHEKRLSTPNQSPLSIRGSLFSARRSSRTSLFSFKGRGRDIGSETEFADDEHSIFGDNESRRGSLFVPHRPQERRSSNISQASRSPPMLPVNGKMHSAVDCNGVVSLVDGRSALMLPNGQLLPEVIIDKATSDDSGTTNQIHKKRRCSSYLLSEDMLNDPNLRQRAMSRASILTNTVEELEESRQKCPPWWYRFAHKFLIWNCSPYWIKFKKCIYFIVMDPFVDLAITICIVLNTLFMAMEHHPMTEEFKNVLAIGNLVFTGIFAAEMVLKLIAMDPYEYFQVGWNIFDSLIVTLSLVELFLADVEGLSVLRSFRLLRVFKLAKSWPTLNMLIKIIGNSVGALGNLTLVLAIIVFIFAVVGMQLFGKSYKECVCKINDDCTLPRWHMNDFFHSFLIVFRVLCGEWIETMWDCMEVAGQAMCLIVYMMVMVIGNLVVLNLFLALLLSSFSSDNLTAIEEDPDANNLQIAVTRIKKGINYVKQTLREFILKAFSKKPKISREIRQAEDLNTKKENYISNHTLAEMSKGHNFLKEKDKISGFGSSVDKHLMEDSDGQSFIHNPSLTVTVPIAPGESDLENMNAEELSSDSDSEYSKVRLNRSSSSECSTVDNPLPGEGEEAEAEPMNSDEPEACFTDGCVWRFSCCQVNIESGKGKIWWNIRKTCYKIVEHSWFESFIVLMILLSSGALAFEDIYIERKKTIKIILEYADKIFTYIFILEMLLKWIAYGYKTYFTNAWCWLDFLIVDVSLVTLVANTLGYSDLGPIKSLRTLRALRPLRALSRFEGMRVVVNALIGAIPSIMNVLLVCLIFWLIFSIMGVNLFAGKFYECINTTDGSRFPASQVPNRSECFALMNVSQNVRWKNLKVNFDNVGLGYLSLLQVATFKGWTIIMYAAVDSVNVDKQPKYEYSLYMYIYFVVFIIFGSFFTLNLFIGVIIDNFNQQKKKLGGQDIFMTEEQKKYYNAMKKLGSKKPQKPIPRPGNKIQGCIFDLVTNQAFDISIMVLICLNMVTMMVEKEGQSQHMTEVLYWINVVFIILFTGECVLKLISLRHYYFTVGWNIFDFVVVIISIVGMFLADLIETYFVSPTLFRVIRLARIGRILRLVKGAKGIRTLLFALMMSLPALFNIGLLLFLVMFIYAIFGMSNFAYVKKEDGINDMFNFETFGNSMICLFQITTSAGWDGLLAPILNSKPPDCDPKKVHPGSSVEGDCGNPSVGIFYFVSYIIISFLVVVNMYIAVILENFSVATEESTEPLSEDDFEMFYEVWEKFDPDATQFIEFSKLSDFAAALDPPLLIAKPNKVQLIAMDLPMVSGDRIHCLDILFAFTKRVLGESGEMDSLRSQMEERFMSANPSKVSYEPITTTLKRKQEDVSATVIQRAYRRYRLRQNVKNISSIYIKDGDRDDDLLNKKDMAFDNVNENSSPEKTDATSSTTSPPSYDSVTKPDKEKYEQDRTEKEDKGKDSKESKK
Assay type: cell-based
`O=S(=O)(Nc1nccs1)c1ccc(Oc2cc(C(F)(F)F)nn2-c2ccccc2)c(F)c1` [Example 229, 3-fluoro-4-(2-phenyl-5-trifluoromethyl-2H-pyrazol-3-yloxy)-N-thiazol-2-yl-benzenesulfonamide] showed an IC50 of 120 nM. Compound `CC(C)(C)n1nc(C(F)(F)F)cc1-c1ccc(Oc2ccc(S(=O)(=O)Nc3ncc(F)s3)cc2C#N)cc1` [Example 281, 4-(4-(1-tert-butyl-3-(trifluoromethyl)-1H-pyrazol-5-yl)phenoxy)-3-cyano-N-(5-fluorothiazol-2-yl)benzenesulfonamide] has an IC50 of 120 nM. With `N#Cc1cc(S(=O)(=O)Nc2ncc(Cl)s2)ccc1Oc1ccccc1C1CC1` [Example 144, N-(5-chloro-1,3-thiazol-2-yl)-3-cyano-4-(2-cyclopropylphenoxy)benzenesulfonamide] the IC50 was 1390 nM. `Cc1c(Cl)ccc(Oc2ccc(S(=O)(=O)Nc3nccs3)cc2F)c1-c1nnco1` [Example 244, 4-(4-chloro-3-methyl-2-[1,3,4]oxadiazol-2-yl-phenoxy)-3-fluoro-N-thiazol-2-yl-benzenesulfonamide] showed an IC50 of 1790 nM. With `N#Cc1cc(S(=O)(=O)Nc2cnsc2)ccc1Oc1ccccc1-c1ccccc1` [Example 99, 4-(biphenyl-2-yloxy)-3-cyano-N-isothiazol-4-ylbenzenesulfonamide] the IC50 was >10000 nM and 24900 nM. `Cc1nn(Cc2ccccc2)cc1-c1ccccc1Oc1ccc(S(=O)(=O)Nc2ncns2)cc1F` [Example 252, 4-(2-(1-benzyl-3-methyl-1H-pyrazol-4-yl)phenoxy)-3-fluoro-N-(1,2,4-thiadiazol-5-yl)benzenesulfonamide] showed an IC50 of 24500 nM. Work on `COc1cc(-c2ccccc2Oc2ccc(S(=O)(=O)Nc3ncns3)cc2C#N)ccc1C#N` [Example 13, 3-cyano-4-[(4′-cyano-3′-methoxybiphenyl-2-yl)oxy]-N-1,2,4-thiadiazol-5-ylbenzenesulfonamide] yielded an IC50 of 170 nM. With `O=S(=O)(Nc1nccs1)c1ccc(Oc2ccc(Cl)cc2-c2ccnn2-c2ccccc2)cc1F` [Example 211, 4-(4-chloro-2-(1-phenyl-1H-pyrazol-5-yl)phenoxy)-2-fluoro-N-(thiazol-2-yl)benzenesulfonamide] the IC50 was 110 nM. With `CC(C)(C)n1nccc1-c1c(Cl)cccc1Oc1ccc(S(=O)(=O)Nc2nccs2)cc1C#N` [Example 198, 4-[2-(2-tert-butyl-2H-pyrazol-3-yl)-3-chloro-phenoxy]-3-cyano-N-thiazol-2-yl-benzenesulfonamide] the IC50 was 2470 nM. In the case of `O=S(=O)(Nc1ncns1)c1cc(F)c(Oc2ccn(Cc3ccc(Cl)cc3)n2)c(F)c1` [Example 265, 4-{[1-(4-chlorobenzyl)-1H-pyrazol-3-yl]oxy}-3,5-difluoro-N-1,2,4-thiadiazol-5-ylbenzenesulfonamide], the IC50 is reported as 38900 nM. In the case of `N#Cc1cc(S(=O)(=O)Nc2nccs2)ccc1Oc1ccc(Cl)cc1-c1ccnn1-c1ccccc1` [Example 171, 4-(4-chloro-2-(1-phenyl-1H-pyrazol-5-yl)phenoxy)-3-cyano-N-(thiazol-2-yl)benzenesulfonamide], the IC50 is reported as 110 nM. `O=C(O)Cn1nccc1-c1cc(F)ccc1Oc1ccc(S(=O)(=O)Nc2nccs2)cc1F` [Example 238, 2-(5-(5-fluoro-2-(2-fluoro-4-(N-thiazol-2-ylsulfamoyl)phenoxy)phenyl)-1H-pyrazol-1-yl)acetic acid] was tested, and the IC50 was 2210 nM. In the case of `N#Cc1cc(S(=O)(=O)Nc2nccs2)ccc1Oc1cc(C2CC2)nn1-c1ccccn1` [Example 191, 3-cyano-4-(5-cyclopropyl-2-pyridin-2-yl-2H-pyrazol-3-yloxy)-N-thiazol-2-yl-benzenesulfonamide], the IC50 is reported as >10000 nM. In the case of `N#Cc1cc(S(=O)(=O)Nc2nccs2)ccc1Oc1ccc(Cl)cc1-c1ccnn1CC(F)(F)F` [Example 177, 4-(4-chloro-2-(1-(2,2,2-trifluoroethyl)-1H-pyrazol-5-yl)phenoxy)-3-cyano-N-(thiazol-2-yl)benzenesulfonamide], the IC50 is reported as 100 nM.

Same assay, conditions: estimated IC50; hSCN9A HEK cells, PatchXpress platform; Examples 283-814
In the case of `Cn1nc(C(F)(F)F)cc1-c1ccc(Oc2ccc(S(=O)(=O)Nc3ncc(F)s3)cc2F)cc1` [Example 609, 3-fluoro-N-(5-fluoro-1,3-thiazol-2-yl)-4-{4-[1-methyl-3-(trifluoromethyl)-1H-pyrazol-5-yl]phenoxy}benzenesulfonamide], the IC50 is reported as 1700 nM. In the case of `Cn1ncnc1-c1cc(Cl)ccc1Oc1ccc(S(=O)(=O)Nc2ncc(F)s2)cc1F` [Example 349, 4-[4-chloro-2-(1-methyl-1H-1,2,4-triazol-5-yl)phenoxy]-3-fluoro-N-(5-fluoro-1,3-thiazol-2-yl)benzenesulfonamide], the IC50 is reported as >1000 nM. Work on `N#Cc1cc(S(=O)(=O)Nc2ncc(Cl)s2)ccc1Oc1ccc(Cl)cc1-c1ccnn1C1CNC1` [Example 559, 4-[2-(1-azetidin-3-yl-1H-pyrazol-5-yl)-4-chlorophenoxy]-N-(5-chloro-1,3-thiazol-2-yl)-3-cyanobenzenesulfonamide] yielded an IC50 of 0.7 nM. With `O=S(=O)(Nc1ncns1)c1ccc(Oc2ccc(Cl)cc2-c2ccn[nH]2)c(Cl)c1` [Example 475, 3-chloro-4-[4-chloro-2-(1H-pyrazol-5-yl)phenoxy]-N-1,2,4-thiadiazol-5-ylbenzenesulfonamide] the IC50 was 7.5 nM. With `N#Cc1cc(S(=O)(=O)Nc2nccs2)ccc1Oc1cnn(-c2ccc(Cl)cc2Cl)c1` [Example 333, 3-cyano-4-{[1-(2,4-dichlorophenyl)-1H-pyrazol-4-yl]oxy}-N-1,3-thiazol-2-ylbenzenesulfonamide] the IC50 was >1000 nM. `CCn1nc(C(F)(F)F)cc1-c1ccc(Oc2ccc(S(=O)(=O)Nc3ncns3)cc2Cl)cc1` [Example 473, 3-chloro-4-{4-[1-ethyl-3-(trifluoromethyl)-1H-pyrazol-5-yl]phenoxy}-N-1,2,4-thiadiazol-5-ylbenzenesulfonamide] gave an IC50 of 72 nM. In the case of `COc1cc(Oc2ccc(S(=O)(=O)Nc3ccc(F)cn3)cc2C#N)ccc1-n1cnc(C)c1` [Example 575, 3-cyano-N-(5-fluoropyridin-2-yl)-4-[3-methoxy-4-(4-methyl-1H-imidazol-1-yl)phenoxy]benzenesulfonamide], the IC50 is reported as >30000 nM. Compound `Cn1nccc1-c1cc(OC(F)(F)F)ccc1Oc1ccc(S(=O)(=O)Nc2ncns2)cc1C#N` [Example 795, 3-cyano-4-[2-(1-methyl-1H-pyrazol-5-yl)-4-(trifluoromethoxy)phenoxy]-N-1,2,4-thiadiazol-5-ylbenzenesulfonamide] has an IC50 of 4.6 nM. Work on `Cc1nc(NS(=O)(=O)c2ccc(Oc3ccccc3-c3ccccc3)c(C#N)c2)sc1F` [Example 712, 4-(biphenyl-2-yloxy)-3-cyano-N-(5-fluoro-4-methyl-1,3-thiazol-2-yl)benzenesulfonamide] yielded an IC50 of 1200 nM. `CC(=O)N1CC(c2cc(Cl)ccc2Oc2ccc(S(=O)(=O)Nc3nccs3)cc2C#N)C1` [Example 640, 4-[2-(1-acetylazetidin-3-yl)-4-chlorophenoxy]-3-cyano-N-1,3-thiazol-2-ylbenzenesulfonamide] was tested, and the IC50 was 1000 nM. `Cn1nc(C(F)(F)F)cc1-c1ccc(Oc2cc(F)c(S(=O)(=O)Nc3cscn3)cc2Cl)c(C#N)c1` [Example 524, 5-chloro-4-{2-cyano-4-[1-methyl-3-(trifluoromethyl)-1H-pyrazol-5-yl]phenoxy}-2-fluoro-N-1,3-thiazol-4-ylbenzenesulfonamide] showed an IC50 of 580 nM. In the case of `Cn1nccc1-c1cc(F)ccc1Oc1cc(F)c(S(=O)(=O)Nc2ncns2)cc1Cl` [Example 621, 5-chloro-2-fluoro-4-(4-fluoro-2-(1-methyl-1H-pyrazol-5-yl)phenoxy)-N-(1,2,4-thiadiazol-5-yl)benzenesulfonamide], the IC50 is reported as 75 nM. `Cn1nccc1-c1cc(I)ccc1Oc1ccc(S(=O)(=O)Nc2nccs2)cc1C#N` [Example 312, 3-cyano-4-[4-iodo-2-(1-methyl-1H-pyrazol-5-yl)phenoxy]-N-1,3-thiazol-2-ylbenzenesulfonamide] gave an IC50 of 17 nM.

Same assay, conditions: estimated IC50; hSCN9A HEK cells, PatchXpress platform; Examples 815-1040
`Cc1cnc(NS(=O)(=O)c2ccc(Oc3ccc(Cl)cc3-c3ccnn3C)c(C#N)c2)cn1` [Example 892, 4-[4-chloro-2-(1-methyl-1H-pyrazol-5-yl)phenoxy]-3-cyano-N-(5-methylpyrazin-2-yl)benzenesulfonamide] was tested, and the IC50 was >10000 nM. Compound `O=S(=O)(Nc1ncns1)c1ccc(Oc2ccc(C(F)(F)F)cc2-c2ccnnc2)c(Cl)c1` [Example 928, 3-chloro-4-[2-pyridazin-4-yl-4-(trifluoromethyl)phenoxy]-N-1,2,4-thiadiazol-5-ylbenzenesulfonamide] has an IC50 of 3.6 nM. With `O=S(=O)(Nc1ncns1)c1ccc(Oc2cc(Cl)c(F)cc2-c2ccnnc2)c(F)c1` [Example 934, 4-(5-chloro-4-fluoro-2-pyridazin-4-ylphenoxy)-3-fluoro-N-1,2,4-thiadiazol-5-ylbenzenesulfonamide] the IC50 was 53 nM. `N#Cc1cc(S(=O)(=O)Nc2ncns2)ccc1Oc1cc(C(F)(F)F)c(F)cc1-c1ccnnc1` [Example 948, 3-cyano-4-[4-fluoro-2-pyridazin-4-yl-5-(trifluoromethyl)phenoxy]-N-1,2,4-thiadiazol-5-ylbenzenesulfonamide] showed an IC50 of 11 nM. With `O=S(=O)(Nc1nncs1)c1cc(Cl)c(Oc2ccc(OC(F)(F)F)cc2-c2ccnnc2)cc1F` [Example 932, 5-chloro-2-fluoro-4-[2-pyridazin-4-yl-4-(trifluoromethoxy)phenoxy]-N-1,3,4-thiadiazol-2-ylbenzenesulfonamide] the IC50 was 75 nM. With `Nc1n[nH]cc1-c1cc(Cl)ccc1Oc1ccc(S(=O)(=O)Nc2ccncn2)cc1Cl` [Example 973, 4-[2-(3-amino-1H-pyrazol-4-yl)-4-chlorophenoxy]-3-chloro-N-pyrimidin-4-ylbenzenesulfonamide] the IC50 was 25 nM. In the case of `N#Cc1cc(S(=O)(=O)Nc2ncns2)ccc1Oc1ccc(Cl)cc1-c1cccc(C(=O)NC2CC2)c1` [Example 864, 5′-chloro-2′-{2-cyano-4-[(1,2,4-thiadiazol-5-ylamino)sulfonyl]phenoxy}-N-cyclopropylbiphenyl-3-carboxamide], the IC50 is reported as 4.4 nM. `O=C(c1cccc(-c2cc(Cl)ccc2Oc2cc(F)c(S(=O)(=O)Nc3nncs3)cc2Cl)c1)N1CCC1` [Example 857, 4-{[3′-(azetidin-1-ylcarbonyl)-5-chlorobiphenyl-2-yl]oxy}-5-chloro-2-fluoro-N-1,3,4-thiadiazol-2-ylbenzenesulfonamide] gave an IC50 of 14 nM.
